Measured values: ChEMBL document CHEMBL4049384, “Synthesis and evaluation of an injectable everolimus prodrug” (Bioorg Med Chem Lett, 2017)
≈ marks a conversion by molar mass, not a printed value.

Columns and labels:
[1] = system: MDA-MB-435; experiment: Antiproliferative activity against human MDA-MB-435 cells after 48 hrs by MTT assay; assay type: functional, cell-based; conditions: MDA-MB-435, 48 h
[2] = system: OS-RC-2; experiment: Antitumor activity against human OS-RC2 cells xenografted in nude mouse assessed as reduction in tumor volume at 6 mg/kg administered three times a week through oral gavage measured on day 19 relative to control; assay type: functional
[3] = system: OS-RC-2; experiment: Antitumor activity against human OS-RC2 cells xenografted in nude mouse assessed as tumor growth inhibition at 6 mg/kg administered three times a week through oral gavage measured after 32 days relative to control; assay type: functional; conditions: OS-RC-2, po, 768 h, read-out: TGI
[4] = system: Mus musculus; experiment: Toxicity in nude mouse xenografted with human OS-RC-2 cells assessed as body weight loss at 6 mg/kg administered three times a week through oral gavage measured on day 5 (reference value: 1.9%); assay type: organism-based; conditions: in vivo
[5] = system: OS-RC-2; experiment: Antitumor activity against human OS-RC2 cells xenografted in nude mouse assessed as reduction in tumor volume at 6 mg/kg administered three times a week through oral gavage measured on day 22 relative to control; assay type: functional
[6] = system: Mus musculus; experiment: Toxicity in nude mouse xenografted with human OS-RC2 cells assessed as body weight loss at 6 mg/kg administered three times a week through oral gavage and measured on Day 12 (reference value: 15 %); assay type: organism-based; conditions: in vivo
[7] = system: Mus musculus; experiment: Toxicity in nude mouse xenografted with human OS-RC-2 cells assessed as body weight loss at 6 mg/kg administered three times a week through oral gavage measured after 32 days (reference value: 33%); assay type: organism-based; conditions: in vivo, 768 h
[8] = system: NCI-H460; experiment: Antiproliferative activity against human NCI-H460 cells after 48 hrs by MTT assay; assay type: functional, cell-based; conditions: NCI-H460, 48 h
[9] = system: OS-RC-2; experiment: Antitumor activity against human OS-RC2 cells xenografted in nude mouse assessed as reduction in tumor volume at 6 mg/kg administered three times a week through oral gavage measured on day 29 relative to control; assay type: functional
[10] = Drug uptake in Sprague-Dawley rat blood at 10 mg/kg, po after 2 hrs by HPLC method; assay type: ADME, organism-based; conditions: read-out: Drug uptake
[11] = system: Mus musculus; experiment: Toxicity in nude mouse xenografted with human OS-RC2 cells assessed as body weight loss at 6 mg/kg administered three times a week through oral gavage and measured on Day 22 (reference value: 23.1 %); assay type: organism-based; conditions: in vivo
[12] = AUC (0 to t) in Sprague-Dawley rat at 10 mg/kg, po; assay type: ADME, organism-based; conditions: in vivo
[13] = Tmax in Sprague-Dawley rat at 10 mg/kg, po; assay type: ADME, organism-based; conditions: in vivo
[14] = Half life in Sprague-Dawley rat at 10 mg/kg, po; assay type: ADME, organism-based; conditions: in vivo
[15] = system: Mus musculus; experiment: Toxicity in nude mouse xenografted with human OS-RC-2 cells assessed as body weight at 6 mg/kg administered three times a week through oral gavage measured on day 1 (reference value: 20.4 +/- 0.33 g); assay type: organism-based; conditions: in vivo
[16] = Solubility of the compound in water; assay type: physicochemical
[17] = system: Mus musculus; experiment: Toxicity in nude mouse xenografted with human OS-RC2 cells assessed as body weight loss at 6 mg/kg administered three times a week through oral gavage and measured on day 15 (reference value: 20.2 %); assay type: organism-based; conditions: in vivo
[18] = Drug uptake in Sprague-Dawley rat blood at 10 mg/kg, po after 0.25 hrs by HPLC method; assay type: ADME, organism-based; conditions: read-out: Drug uptake
[19] = Cmax in Sprague-Dawley rat at 10 mg/kg, po; assay type: ADME, organism-based; parameters: dose 10 mg/kg, route oral; conditions: in vivo
[20] = system: OS-RC-2; experiment: Antitumor activity against human OS-RC2 cells xenografted in nude mouse assessed as reduction in tumor volume at 6 mg/kg administered three times a week through oral gavage measured on day 26 relative to control; assay type: functional
[21] = Drug uptake in Sprague-Dawley rat blood at 10 mg/kg, po after 1.5 hrs by HPLC method; assay type: ADME, organism-based; conditions: read-out: Drug uptake
[22] = system: Mus musculus; experiment: Toxicity in nude mouse xenografted with human OS-RC2 cells assessed as body weight loss at 6 mg/kg administered three times a week through oral gavage and measured on Day 19 (reference value: 23.1 %); assay type: organism-based; conditions: in vivo
[23] = system: Mus musculus; experiment: Toxicity in nude mouse xenografted with human OS-RC-2 cells assessed as death at 6 mg/kg administered three times a week through oral gavage after 32 days; assay type: organism-based; conditions: in vivo, 768 h
[24] = system: OS-RC-2; experiment: Antitumor activity against human OS-RC2 cells xenografted in nude mouse assessed as tumor weight at 6 mg/kg administered three times a week through oral gavage measured after 32 days (reference value: 0.68 +/- 0.06 g); assay type: functional
[25] = AUC (0 to infinity) in Sprague-Dawley rat at 10 mg/kg, po; assay type: ADME, organism-based; parameters: dose 10 mg/kg, route oral, time infinity; conditions: in vivo
[26] = Drug uptake in Sprague-Dawley rat blood at 10 mg/kg, po after 1 hr by HPLC method; assay type: ADME, organism-based; conditions: read-out: Drug uptake
[27] = system: OS-RC-2; experiment: Antitumor activity against human OS-RC2 cells xenografted in nude mouse assessed as reduction in tumor volume at 6 mg/kg administered three times a week through oral gavage measured on day 15 relative to control; assay type: functional
[28] = Drug uptake in Sprague-Dawley rat blood at 10 mg/kg, po after 3 hrs by HPLC method; assay type: ADME, organism-based; conditions: read-out: Drug uptake
[29] = system: Mus musculus; experiment: Toxicity in nude mouse xenografted with human OS-RC2 cells assessed as body weight loss at 6 mg/kg administered three times a week through oral gavage and measured on Day 8 (reference value: 8.5 %); assay type: organism-based; conditions: in vivo
[30] = system: OS-RC-2; experiment: Antitumor activity against human OS-RC2 cells xenografted in nude mouse assessed as tumor volume at 6 mg/kg administered three times a week through oral gavage measured on day 1 (reference value: 167.51 +/- 17.09 mm3); assay type: functional
[31] = system: Mus musculus; experiment: Toxicity in nude mouse xenografted with human OS-RC2 cells assessed as body weight loss at 6 mg/kg administered three times a week through oral gavage and measured on Day 26 (reference value: 28.2 %); assay type: organism-based; conditions: in vivo
[32] = system: OS-RC-2; experiment: Antitumor activity against human OS-RC2 cells xenografted in nude mouse assessed as reduction in tumor volume at 6 mg/kg administered three times a week through oral gavage measured on day 32 relative to control; assay type: functional
[33] = Drug uptake in Sprague-Dawley rat blood at 10 mg/kg, po after 8 hrs by HPLC method; assay type: ADME, organism-based; conditions: read-out: Drug uptake
[34] = system: DU-145; experiment: Antiproliferative activity against human DU145 cells after 48 hrs by MTT assay; assay type: functional, cell-based; conditions: DU-145, 48 h
[35] = system: OS-RC-2; experiment: Antitumor activity against human OS-RC2 cells xenografted in nude mouse assessed as reduction in tumor volume at 6 mg/kg administered three times a week through oral gavage measured on day 8 relative to control; assay type: functional
[36] = Drug uptake in Sprague-Dawley rat blood at 10 mg/kg, po after 24 hrs by HPLC method; assay type: ADME, organism-based; conditions: read-out: Drug uptake
[37] = system: Mus musculus; experiment: Toxicity in nude mouse xenografted with human OS-RC2 cells assessed as body weight loss at 6 mg/kg administered three times a week through oral gavage and measured on Day 29 (reference value: 31.2 %); assay type: organism-based; conditions: in vivo
[38] = system: HepG2; experiment: Antiproliferative activity against human HepG2 cells after 48 hrs by MTT assay; assay type: functional, cell-based; conditions: HepG2, 48 h
[39] = Drug uptake in Sprague-Dawley rat blood at 10 mg/kg, po after 4 hrs by HPLC method; assay type: ADME, organism-based; conditions: read-out: Drug uptake
[40] = Drug uptake in Sprague-Dawley rat blood at 10 mg/kg, po after 6 hrs by HPLC method; assay type: ADME, organism-based; conditions: read-out: Drug uptake
[41] = system: OS-RC-2; experiment: Antitumor activity against human OS-RC2 cells xenografted in nude mouse assessed as reduction in tumor volume at 6 mg/kg administered three times a week through oral gavage measured on day 5 relative to control; assay type: functional
[42] = Drug uptake in Sprague-Dawley rat blood at 10 mg/kg, po after 0.5 hrs by HPLC method; assay type: ADME, organism-based; conditions: read-out: Drug uptake
[43] = system: OS-RC-2; experiment: Antitumor activity against human OS-RC2 cells xenografted in nude mouse assessed as reduction in tumor volume at 6 mg/kg administered three times a week through oral gavage measured on day 12 relative to control; assay type: functional
[44] = system: PC-3; experiment: Antiproliferative activity against human PC3 cells after 48 hrs by MTT assay; assay type: functional, cell-based; conditions: PC-3, 48 h

Work on `CO[C@H]1C[C@@H]2CC[C@@H](C)[C@@](O)(O2)C(=O)C(=O)N2CCCC[C@H]2C(=O)O[C@H]([C@H](C)C[C@@H]2CC[C@@H](OCCO)[C@H](OC)C2)CC(=O)[C@H](C)/C=C(\C)[C@@H](O)[C@@H](OC)C(=O)[C@H](C)C[C@H](C)\C=C/C=C/C=C/1C` yielded an IC50 [1] of 62.5 µM, a T/C [2] of 0.71% and an inhibition in vivo at 6 mg/kg [3] of 41.1%. The Activity [4] was 2.7%, the T/C [5] was 0.69% and the Activity [6] was 8.2%. The Activity [7] was 11.7%, the IC50 [8] was 99.8 µM and the T/C [9] was 0.72%. It also gave a concentration at 2 h [10] of 69.7 ng/mL, an Activity [11] of 9.7% and an AUC(0-t) [12] of 454 ng·h/mL. It also gave a Tmax [13] of 1.91 h, a half-life [14] of 2.2 h and an Activity [15] of 20.94 g. For the same compound, the solubility [16] was 1 µg/mL (≈ 1.04 µM), the Activity [17] was 8.7% and the concentration at 0.25 h [18] was 17.4 ng/mL. For the same compound, the Cmax [19] was 126 ng/mL, the T/C [20] was 0.71% and the concentration at 1.5 h [21] was 90.4 ng/mL. The Activity [22] was 9.7%, the Activity [23] was “Non-Toxic” and the Activity [24] was 0.4 g. It also gave an AUC(0-inf) [25] of 454 ng·h/mL, a concentration at 1 h [26] of 99.2 ng/mL and a T/C [27] of 0.66%. The concentration at 3 h [28] was 64.3 ng/mL, the Activity [29] was 3.1% and the Activity [30] was 167.38 mm3. The Activity [31] was 9.1%, the T/C [32] was 0.77% and the concentration at 8 h [33] was 16.3 ng/mL. The IC50 [34] was 57.3 µM, the T/C [35] was 76% and the concentration at 24 h [36] was 2.28 ng/mL. For the same compound, the Activity [37] was 10.5%, the IC50 [38] was 52.3 µM and the concentration at 4 h [39] was 61.4 ng/mL. For the same compound, the concentration at 6 h [40] was 32.4 ng/mL, the T/C [41] was 79% and the concentration at 0.5 h [42] was 100 ng/mL. The T/C [43] was 0.72% and the IC50 [44] was 30.2 µM.
